Publication PMC10179475, “Flavone and Hydroxyflavones Are Ligands That Bind the Orphan Nuclear Receptor 4A1 (NR4A1)” (International Journal of Molecular Sciences, 2023)
“Also recorded” adds a separate entry of the source. Like-named read-outs stand apart in the source and are kept apart here.

Key:
[1] = molecular target: T1, GAL4-NR4A1 (Homo sapiens, UniProt P22736); test: NR4A1-dependent transactivation, GAL4-NR4A1/UAS-luc, Panc1 cells; type: cell-based; design: expressed in transfected cells; host or cells: Panc1 pancreatic cancer cells; Rh30 rhabdomyosarcoma cells; conditions: for effect on luciferase activity: 25 or 50 µM, p < 0.05
Procedure: Figure 3 Hydroxyflavonoid activation of NR4A1-dependent transactivation. Panc1 cells were cotransfected with GAL4-NR4A1 and UAS-luciferase constructs, cells were treated with 25 and 50 µM hydroxyflavonoids and luciferase activity (normalized to β-galactosidase activity) was determined. Results were determined in triplicate for each concentration and are plotted as mean values ±SE. Significant induction or inhibition (p < 0.05) of luciferase activity is illustrated (*).
The UAS-luciferase reporter gene containing 5 GAL4 binding sites and the GAL4-NR4A1 chimera containing the GAL4 DNA-binding domain which linked to the ligand-binding domain (LBD) of NR4A1 were used in transactivation assays in Panc1 pancreatic cancer cells. Panc-1 cells were plated in a 24-well plate (3 × 10^4 cells/well) and grown for 24 h. Cells were then co-transfected with each construct (250 ng) and the β-gal expression construct (25 ng) using GeneJuice (Novagen, Madison, WI, USA) in accordance with the manufacture’s protocol. The medium was removed after 18 h and replaced with a 2.5% charcoal-stripped FBS-supplemented medium containing either DMSO or flavonoids (25 and 50 µM) in DMSO. After 24 h, cells were then lysed, and cell extracts were processed to measure luciferase activity. Luciferase activity was normalized by dividing the β-gal expression and each treatment was determined in three independent experiments. Data were expressed as mean ± SE and significant (p < 0.05) effects were noted.

[2] = molecular target: T1, GAL4-NR4A1; test: NR4A1-dependent transactivation, GAL4-NR4A1/UAS-luc, Rh30 cells; type: cell-based; design: expressed in transfected cells; host or cells: Rh30 rhabdomyosarcoma cells; conditions: for effect on NR4A1-dependent transactivation: 50 µM
[3] = molecular target: NR4A1 protein (ligand-binding domain: LBD) (Homo sapiens, UniProt P22736); test: Isothermal titration calorimetry (ITC) binding assay;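 note: ligand titrated into 20 µmol/L NR4A1 LBD in sodium phosphate buffer pH 7.4 with glycerol and ethanol, thirty injections, heat flow corrected for ligand-into-buffer dilution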
[4] = molecular target: ligand-binding domain (LBD) of NR4A1 (Homo sapiens, UniProt P22736); test: Direct-binding fluorescence assay (quenching of NR4A1 tryptophan fluorescence)
Procedure: (§1) Tryptophan fluorescence spectra were obtained essentially as described. Briefly, the ligand-binding domain of NR4A1 at the final concentration of 0.5 µmol/L in 1.0 mL of phosphate-buffered saline (PBS, pH 7.4) was used for fluorescence measurements. The protein was incubated for 3 min at 25 °C in a temperature-controlled (Quantum Northwest TC125) fluorescence spectrophotometer (Varian Cary Eclipse). The fluorescence spectra were obtained using an excitation wavelength of 285 nm (excitation slit width = 5 nm) and an emission wavelength range of 300–420 nm (emission slit width = 5 nm). Aliquots (0.1 µL/aliquot) of the ligand (10 mmol ligand/L ethanol) were then added to the cuvette containing NR4A1 to reach a final ligand concentration of up to 60 µmol/L. After each aliquot of the ligand, the NR4A1/ligand solution was incubated at 25 °C for 3 min and the loss of tryptophan fluorescence was measured as described above. The addition of DMSO only (up to a final volume of 3.0 µL) had no effect on NR4A1 tryptophan fluorescence. […] Fluorescence intensity at each ligand concentration was used to correct the NR4A1 tryptophan fluorescence intensity as described.

[5] = Solubility in the fluorescence assay; type: physicochemical; conditions: aqueous
Procedure: as §1

[6] = molecular target: T1, GAL4-NR4A1; design: expressed in transfected cells; host or cells: Rh30 rhabdomyosarcoma cells; method as in PMID 34906197; conditions: Rh30 rhabdomyosarcoma cells, same constructs, cited from earlier work
[7] = tested on: rhabdomyosarcoma tumor; design: method as in PMID 34906197; conditions: athymic mouse xenograft model; cited from earlier work
[8] = tested on: ERα; design: method as in PMID 18095219; conditions: cited from earlier work
[9] = fluorescence (Trp quenching) assay, Table 1 head prints no unit, µM from text and Figure 5, read-out: KD, direct binding assay
[10] = fluorescent binding assay, read-out: KD (Figure 1)

T1 sequence (P22736 360-595 limits assumed): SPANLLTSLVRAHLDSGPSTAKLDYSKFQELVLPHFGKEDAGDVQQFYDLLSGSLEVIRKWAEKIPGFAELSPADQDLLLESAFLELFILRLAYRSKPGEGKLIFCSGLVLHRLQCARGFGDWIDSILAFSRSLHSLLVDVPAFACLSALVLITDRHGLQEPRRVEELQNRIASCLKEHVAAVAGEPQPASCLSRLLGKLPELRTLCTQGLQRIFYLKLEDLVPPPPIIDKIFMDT
Sequence of ligand-binding domain (LBD) of NR4A1 (P22736 360-595 limits assumed): as above
Sequence of NR4A1 protein (ligand-binding domain: LBD) (P22736 360-595 limits assumed): as above

Row | Structure (SMILES) | ITC assay ΔG ([3]; 25 °C) | Kd [4, 9] | Kd ([3]; 25 °C, read-out: ITC assay Kd1) | effect on NR4A1-dependent transactivation [2] | effect on luciferase activity [1] | further results
1 | O=c1cc(-c2ccccc2)oc2cc(O)ccc12 [7-Hydroxyflavone] | -10.1 kcal/mol | 7.4 µM |  |  | significantly induced luciferase activity | induction of luciferase activity [1]: < 2.4 fold; induction of luciferase activity [2]: < 2.4 fold; Kd [3]: 0.042 µM
2 | O=c1cc(-c2ccccc2)oc2cc(O)c(O)c(O)c12 [5,6,7 -Trihydroxyflavone (Baicalein), 5,6,7-Trihydroxyflavone] | -9.42 kcal/mol | 1.85 µM | 0.13 µM |  | significantly induced luciferase activity | 
3 | O=c1cc(-c2cccc(O)c2)oc2cc(O)ccc12 [7,3′-Dihydroxyflavone] | -9.25 kcal/mol | 21.4 µM | 0.17 µM |  |  | 
4 | O=c1c(O)c(-c2ccccc2)oc2ccccc12 [3-Hydroxyflavone] | -10.4 kcal/mol |  | 0.0225 µM |  |  | solubility [5]: insoluble; solubility ([5]; listed as 3-hydroxyflavone): aqueous insolubility
5 | O=c1cc(-c2ccc(O)c(O)c2)oc2ccccc12 [3′,4′-Dihydroxyflavone] | -6.86 kcal/mol | 0.96 µM | 9.5 µM |  |  | induction of luciferase activity [1]: < 2.4 fold; induction of luciferase activity [2]: < 2.4 fold
6 | O=c1c(O)c(-c2ccccc2)oc2cc(O)cc(O)c12 [3,5,7 -Trihydroxyflavone (Galangin), 3,5,7-Trihydroxyflavone] | -12.2 kcal/mol | 0.36 µM | 0.001 µM | potent inhibition | decreased luciferase activity | 
7 | O=c1c(O)c(-c2ccccc2)oc2ccc(O)cc12 [3,6-Dihydroxyflavone] | -4.57 kcal/mol | 0.66 µM | 444 µM | potent inhibition |  | 
8 | O=c1c(O)c(-c2ccc(O)c(O)c2)oc2cc(O)cc(O)c12 | -8.8 kcal/mol | 0.81 µM | 0.35 µM | decreased transactivation | significantly induced luciferase activity | effect on luciferase activity / NR4A1-dependent transactivation (previous studies) ([6]; listed as quercetin): decreased luciferase activity; also recorded: decreased NR4A1-dependent transactivation; tumor growth [7]: inhibited tumor growth; ER binding [8]: did not bind ERα
9 | O=c1c(O)c(-c2ccc(O)c(O)c2)oc2cccc(O)c12 [3,5,3′,4-tetrahydroxyflavone] |  |  |  | potent inhibition |  | 
10 | O=c1cc(-c2ccc(O)cc2)oc2cc(O)ccc12 [7,4’-Dihydroxyflavone] | -8.63 kcal/mol | 9.1 µM | 0.49 µM |  |  | 
11 | O=c1cc(-c2ccccc2)oc2c(O)c(O)ccc12 [7,8-Dihydroxyflavone] | -10.1 kcal/mol | 17.6 µM | 0.042 µM |  |  | 
12 | Clc1cc(Cl)cc(C(c2c[nH]c3ccccc23)c2c[nH]c3ccccc23)c1 [DIM-3,5-CI2, 1,1-bis(3′-indolyl)-1-(3,5-dichlorophenyl)methane, reference compound] |  |  |  | decreased transactivation |  | 

Second part, led by results:

Row | ITC assay ΔG ([3]; 25 °C) | Kd [4, 9] | Kd ([3]; 25 °C, read-out: ITC assay Kd1) | effect on NR4A1-dependent transactivation [2] | Structure (SMILES) | effect on luciferase activity [1] | further results
13 | -12.3 kcal/mol | 11.3 µM | 0.001 µM |  | O=c1cc(-c2ccccc2)oc2cc(O)cc(O)c12 [5,7 Dihydroxyflavone] |  | 
14 | -10.5 kcal/mol | 5.1 µM | 0.019 µM |  | O=c1cc(-c2ccc(O)c(O)c2)oc2cc(O)cc(O)c12 [5,7,3′4′-Tetrahydroxyflavone (Luteolin), 5,7,3′4′-Tetrahydroxyflavone] | significantly induced luciferase activity | 
15 | -9.42 kcal/mol | 13 µM | 0.15 µM | potent inhibition | O=c1cc(-c2ccc(O)cc2)oc2ccccc12 [4′-Hydroxyflavone] | significantly induced luciferase activity | 
16 | -5.47 kcal/mol | 3.1 µM | 97.1 µM | decreased transactivation | O=c1c(O)c(-c2ccc(O)cc2)oc2cc(O)cc(O)c12 [3,5,7,4′-Tetrahydroxyflavone] |  | effect on luciferase activity / NR4A1-dependent transactivation (previous studies) ([6]; listed as kaempferol): decreased luciferase activity; also recorded: decreased NR4A1-dependent transactivation; tumor growth [7]: inhibited tumor growth
17 | -6.45 kcal/mol | 1.4 µM | 18 µM |  | O=c1cc(-c2ccccc2)oc2cccc(O)c12 [5-Hydroxyflavone] |  | 
18 | -8.53 kcal/mol | 1.77 µM | 0.57 µM | decreased transactivation | O=c1cc(-c2ccc(O)cc2)oc2cc(O)cc(O)c12 [5,7,4′-Trihydroxyflavone (Apigenin), 5,7,4′-Trihydroxyflavone] |  | Kd [4, 10]: 0.08 µM
19 | -8.84 kcal/mol | 45.8 µM | 0.33 µM |  | O=c1cc(-c2cccc(O)c2)oc2ccccc12 [3′-Hydroxyflavone] |  | Kd [4, 10]: 45.8 µM
20 | -9.2 kcal/mol | 2.8 µM | 0.18 µM | potent inhibition | O=c1c(O)c(-c2ccccc2)oc2cc(O)ccc12 [3,7-Dihydroxyflavone] |  | 
21 | -10.3 kcal/mol | 12.5 µM | 0.032 µM | decreased transactivation | O=c1cc(-c2ccccc2)oc2ccc(O)cc12 [6-Hydroxyflavone] | significantly induced luciferase activity | 
22 | -9.73 kcal/mol | 3.4 µM | 0.075 µM |  | O=c1cc(-c2ccccc2)oc2ccccc12 [Flavone] |  | 
